Experimental data published in ChEMBL document CHEMBL4130634, “Discovery of Reversible DNA Methyltransferase and Lysine Methyltransferase G9a Inhibitors with Antitumoral in Vivo Efficacy” (J Med Chem, 2018).

Experiments:
[1] = target: DNA (cytosine-5)-methyltransferase 1 (Homo sapiens, UniProt P26358); assay: Inhibition of human DNMT1 using polydeoxyinosine polydeoxycytosine DNA as substrate after 15 mins in presence of SAM by TR-FRET assay
[2] = Growth inhibition of human CEMO1 cells after 48 hrs by MTS assay; format: functional
[3] = target: T1, Histone-lysine N-methyltransferase EHMT2 (Homo sapiens, UniProt Q96KQ7); assay: Inhibition of human G9a using biotinylated-H3K9 peptide as substrate after 1 hr in presence of SAM by TR-FRET assay
T1 sequence (Q96KQ7 whole entry): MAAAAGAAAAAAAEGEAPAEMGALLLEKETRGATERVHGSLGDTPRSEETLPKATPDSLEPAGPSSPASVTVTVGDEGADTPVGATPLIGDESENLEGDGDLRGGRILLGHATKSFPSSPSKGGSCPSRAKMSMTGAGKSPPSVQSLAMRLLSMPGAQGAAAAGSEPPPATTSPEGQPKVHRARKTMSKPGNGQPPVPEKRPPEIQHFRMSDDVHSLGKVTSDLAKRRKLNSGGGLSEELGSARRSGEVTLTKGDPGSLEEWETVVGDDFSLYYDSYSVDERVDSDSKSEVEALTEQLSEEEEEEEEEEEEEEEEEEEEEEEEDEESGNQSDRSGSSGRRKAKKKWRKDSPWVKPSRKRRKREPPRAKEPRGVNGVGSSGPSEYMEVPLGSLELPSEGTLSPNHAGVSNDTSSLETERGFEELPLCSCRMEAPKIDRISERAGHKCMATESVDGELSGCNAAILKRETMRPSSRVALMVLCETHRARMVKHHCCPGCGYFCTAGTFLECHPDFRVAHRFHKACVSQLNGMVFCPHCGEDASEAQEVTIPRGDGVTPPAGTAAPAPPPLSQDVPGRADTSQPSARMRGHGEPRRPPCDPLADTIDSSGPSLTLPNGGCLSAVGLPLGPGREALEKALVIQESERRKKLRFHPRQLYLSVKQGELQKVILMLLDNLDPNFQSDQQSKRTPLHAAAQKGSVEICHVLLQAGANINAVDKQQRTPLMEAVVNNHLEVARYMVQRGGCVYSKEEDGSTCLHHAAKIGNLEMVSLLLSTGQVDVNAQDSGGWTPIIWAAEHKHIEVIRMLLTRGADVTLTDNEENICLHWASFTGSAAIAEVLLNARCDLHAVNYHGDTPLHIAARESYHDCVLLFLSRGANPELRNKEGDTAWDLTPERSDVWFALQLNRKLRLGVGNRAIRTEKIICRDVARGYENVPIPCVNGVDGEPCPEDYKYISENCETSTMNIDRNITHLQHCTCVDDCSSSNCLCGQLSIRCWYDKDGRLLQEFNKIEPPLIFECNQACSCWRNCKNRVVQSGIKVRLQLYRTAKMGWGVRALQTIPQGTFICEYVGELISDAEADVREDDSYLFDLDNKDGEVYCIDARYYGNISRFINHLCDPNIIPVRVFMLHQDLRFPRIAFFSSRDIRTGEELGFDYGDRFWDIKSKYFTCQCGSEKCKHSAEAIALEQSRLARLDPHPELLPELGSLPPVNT

[4] = Metabolic stability in mouse liver microsomes assessed as parent compound remaining at 1 uM preincubated for 10 mins followed by NADP addition after 20 mins by LC-MS/MS analysis; format: ADME, microsome; conditions: read-out: Stability
THLE-2 = assay: Growth inhibition of human THLE2 cells after 72 hrs by MTS assay; format: cell-based; conditions: thle-2, 72 h
CYP2C19 = CYP2C19 (Homo sapiens, UniProt P33261); assay: Inhibition of CYP2C19 in human liver microsomes at 10 uM after 10 mins in presence of NADPH by LC-MS/MS analysis relative to control; format: ADME
Chain of CYP2C19 (P33261 whole entry): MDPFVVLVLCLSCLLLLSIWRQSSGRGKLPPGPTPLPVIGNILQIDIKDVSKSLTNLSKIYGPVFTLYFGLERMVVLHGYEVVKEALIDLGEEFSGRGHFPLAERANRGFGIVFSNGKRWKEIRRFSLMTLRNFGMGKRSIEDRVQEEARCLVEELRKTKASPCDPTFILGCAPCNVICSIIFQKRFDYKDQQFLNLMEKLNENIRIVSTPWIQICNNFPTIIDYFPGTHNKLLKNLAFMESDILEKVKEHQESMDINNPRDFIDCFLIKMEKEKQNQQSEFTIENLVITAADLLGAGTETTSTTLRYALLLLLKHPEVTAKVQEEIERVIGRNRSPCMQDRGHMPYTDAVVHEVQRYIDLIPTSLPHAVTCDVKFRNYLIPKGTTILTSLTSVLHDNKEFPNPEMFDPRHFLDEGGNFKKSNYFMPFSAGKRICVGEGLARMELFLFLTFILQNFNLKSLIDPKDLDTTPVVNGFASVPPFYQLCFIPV

CYP2D6 = CYP2D6 (Homo sapiens, UniProt P10635); assay: Inhibition of CYP2D6 in human liver microsomes at 10 uM after 10 mins in presence of NADPH by LC-MS/MS analysis relative to control; format: ADME
Chain of CYP2D6 (P10635 whole entry): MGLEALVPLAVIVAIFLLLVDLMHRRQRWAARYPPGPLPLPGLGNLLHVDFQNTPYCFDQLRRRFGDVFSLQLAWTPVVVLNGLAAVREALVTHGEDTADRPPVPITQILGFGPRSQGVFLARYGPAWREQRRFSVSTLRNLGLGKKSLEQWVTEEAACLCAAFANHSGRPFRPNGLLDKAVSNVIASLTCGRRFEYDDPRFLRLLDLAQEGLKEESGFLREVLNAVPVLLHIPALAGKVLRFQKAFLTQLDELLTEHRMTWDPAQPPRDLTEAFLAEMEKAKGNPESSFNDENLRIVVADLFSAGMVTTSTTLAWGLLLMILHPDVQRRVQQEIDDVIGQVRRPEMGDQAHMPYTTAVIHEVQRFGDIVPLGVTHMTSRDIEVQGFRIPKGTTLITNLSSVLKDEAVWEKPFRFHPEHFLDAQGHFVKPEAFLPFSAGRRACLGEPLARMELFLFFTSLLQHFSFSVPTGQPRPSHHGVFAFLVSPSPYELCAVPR

[5] = Half life in human liver microsomes at 1 uM preincubated for 10 mins followed by NADP addition after 20 mins by LC-MS/MS analysis; format: ADME, microsome
OCI-Ly10 = assay: Growth inhibition of human OCI-LY10 cells after 48 hrs by MTS assay; format: functional; conditions: OCI-Ly10, 48 h
CYP3A4 = CYP3A4 (Homo sapiens, UniProt P08684); assay: Inhibition of CYP3A4 in human liver microsomes at 10 uM after 10 mins in presence of NADPH by LC-MS/MS analysis relative to control; format: ADME
Chain of CYP3A4 (P08684 whole entry): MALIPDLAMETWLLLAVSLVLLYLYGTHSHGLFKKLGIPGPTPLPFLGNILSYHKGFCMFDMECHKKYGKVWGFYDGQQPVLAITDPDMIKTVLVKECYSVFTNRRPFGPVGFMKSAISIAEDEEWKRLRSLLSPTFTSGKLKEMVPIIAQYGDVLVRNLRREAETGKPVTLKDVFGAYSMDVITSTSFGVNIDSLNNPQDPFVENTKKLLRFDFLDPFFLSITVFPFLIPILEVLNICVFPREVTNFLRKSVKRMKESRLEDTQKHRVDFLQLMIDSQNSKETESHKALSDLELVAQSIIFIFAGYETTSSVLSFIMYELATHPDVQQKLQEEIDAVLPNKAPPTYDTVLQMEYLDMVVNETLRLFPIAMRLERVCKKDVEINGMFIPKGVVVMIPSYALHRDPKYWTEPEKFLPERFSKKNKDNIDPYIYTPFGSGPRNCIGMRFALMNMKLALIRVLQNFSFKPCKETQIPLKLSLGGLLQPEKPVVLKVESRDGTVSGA

OCI-Ly3 = assay: Growth inhibition of human OCI-LY3 cells after 48 hrs by MTS assay; format: functional; conditions: OCI-Ly3, 48 h
[6] = Permeability of the compound at 50 uM after 18 hrs by PAMPA; format: ADME; conditions: read-out: permeability
[7] = Metabolic stability in human liver microsomes assessed as parent compound remaining at 1 uM preincubated for 10 mins followed by NADP addition after 20 mins by LC-MS/MS analysis; format: ADME, microsome
CYP1A2 = target: T2, CYP1A2 (Homo sapiens, UniProt P05177); assay: Inhibition of CYP1A2 in human liver microsomes at 10 uM after 10 mins in presence of NADPH by LC-MS/MS analysis relative to control; format: ADME
T2 sequence (P05177 whole entry): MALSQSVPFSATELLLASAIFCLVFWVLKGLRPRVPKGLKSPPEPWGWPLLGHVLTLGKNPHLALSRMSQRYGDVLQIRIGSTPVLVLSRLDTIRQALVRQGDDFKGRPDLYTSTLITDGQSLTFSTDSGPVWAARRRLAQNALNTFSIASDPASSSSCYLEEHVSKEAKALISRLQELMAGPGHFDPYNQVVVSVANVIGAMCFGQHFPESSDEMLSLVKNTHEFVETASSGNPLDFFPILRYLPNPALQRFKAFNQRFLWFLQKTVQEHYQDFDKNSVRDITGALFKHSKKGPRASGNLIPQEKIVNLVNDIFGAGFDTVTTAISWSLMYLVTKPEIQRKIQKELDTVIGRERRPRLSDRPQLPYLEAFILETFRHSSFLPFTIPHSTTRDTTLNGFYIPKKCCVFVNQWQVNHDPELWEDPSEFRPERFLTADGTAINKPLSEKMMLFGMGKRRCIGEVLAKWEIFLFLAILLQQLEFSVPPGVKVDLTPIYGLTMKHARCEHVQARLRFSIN

MV4-11 [8] = assay: Growth inhibition of human MV4-11 cells after 48 hrs by MTS assay; format: functional; conditions: MV4-11, 48 h
CYP2C9 = CYP2C9 (Homo sapiens, UniProt P11712); assay: Inhibition of CYP2C9 in human liver microsomes at 10 uM after 10 mins in presence of NADPH by LC-MS/MS analysis relative to control; format: ADME
Chain of CYP2C9 (P11712 whole entry): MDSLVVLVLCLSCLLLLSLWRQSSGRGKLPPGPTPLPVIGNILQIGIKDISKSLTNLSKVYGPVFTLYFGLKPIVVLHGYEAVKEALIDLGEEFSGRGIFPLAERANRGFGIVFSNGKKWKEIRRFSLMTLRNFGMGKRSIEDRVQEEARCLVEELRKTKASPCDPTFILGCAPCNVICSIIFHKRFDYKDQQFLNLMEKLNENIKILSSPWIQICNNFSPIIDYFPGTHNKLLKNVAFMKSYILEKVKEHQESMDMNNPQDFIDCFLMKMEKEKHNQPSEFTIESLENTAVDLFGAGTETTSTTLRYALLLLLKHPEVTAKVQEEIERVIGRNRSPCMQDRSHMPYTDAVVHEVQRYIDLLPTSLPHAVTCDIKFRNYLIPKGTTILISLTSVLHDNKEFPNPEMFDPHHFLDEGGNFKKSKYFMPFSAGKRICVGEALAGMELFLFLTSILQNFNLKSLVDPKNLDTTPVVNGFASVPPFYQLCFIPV

[9] = Half life in mouse liver microsomes at 1 uM preincubated for 10 mins followed by NADP addition after 20 mins by LC-MS/MS analysis; format: ADME, microsome
[10] = Growth inhibition of human LAL-CUN-2 cells after 48 hrs by MTS assay; format: functional
MV4-11 [11] = assay: Antitumor activity against human MV4-11 cells xenografted in RARG2-/-gammac-/- Balb/c mouse assessed as tumor growth inhibition at […], iv for 21 consecutive days starting from day 1 post tumor inoculation measured on day 23 relative to control; format: functional; conditions: MV4-11, iv, read-out: TGI
[12] = AUC (0 to 24 hrs) in RARG2-/-gammac-/- Balb/c mouse at […], iv administered as single dose by LC-MS/MS analysis; format: ADME, organism-based; set-up: time < 24 hr, dose 2.5 mg/kg, route intravenous; conditions: in vivo
[13] = Growth inhibition of human LAL-CUN-2 cells at 10 uM after 48 hrs by MTS assay relative to control; format: functional; conditions: read-out: GI

Chain of DNA (cytosine-5)-methyltransferase 1 (P26358 whole entry): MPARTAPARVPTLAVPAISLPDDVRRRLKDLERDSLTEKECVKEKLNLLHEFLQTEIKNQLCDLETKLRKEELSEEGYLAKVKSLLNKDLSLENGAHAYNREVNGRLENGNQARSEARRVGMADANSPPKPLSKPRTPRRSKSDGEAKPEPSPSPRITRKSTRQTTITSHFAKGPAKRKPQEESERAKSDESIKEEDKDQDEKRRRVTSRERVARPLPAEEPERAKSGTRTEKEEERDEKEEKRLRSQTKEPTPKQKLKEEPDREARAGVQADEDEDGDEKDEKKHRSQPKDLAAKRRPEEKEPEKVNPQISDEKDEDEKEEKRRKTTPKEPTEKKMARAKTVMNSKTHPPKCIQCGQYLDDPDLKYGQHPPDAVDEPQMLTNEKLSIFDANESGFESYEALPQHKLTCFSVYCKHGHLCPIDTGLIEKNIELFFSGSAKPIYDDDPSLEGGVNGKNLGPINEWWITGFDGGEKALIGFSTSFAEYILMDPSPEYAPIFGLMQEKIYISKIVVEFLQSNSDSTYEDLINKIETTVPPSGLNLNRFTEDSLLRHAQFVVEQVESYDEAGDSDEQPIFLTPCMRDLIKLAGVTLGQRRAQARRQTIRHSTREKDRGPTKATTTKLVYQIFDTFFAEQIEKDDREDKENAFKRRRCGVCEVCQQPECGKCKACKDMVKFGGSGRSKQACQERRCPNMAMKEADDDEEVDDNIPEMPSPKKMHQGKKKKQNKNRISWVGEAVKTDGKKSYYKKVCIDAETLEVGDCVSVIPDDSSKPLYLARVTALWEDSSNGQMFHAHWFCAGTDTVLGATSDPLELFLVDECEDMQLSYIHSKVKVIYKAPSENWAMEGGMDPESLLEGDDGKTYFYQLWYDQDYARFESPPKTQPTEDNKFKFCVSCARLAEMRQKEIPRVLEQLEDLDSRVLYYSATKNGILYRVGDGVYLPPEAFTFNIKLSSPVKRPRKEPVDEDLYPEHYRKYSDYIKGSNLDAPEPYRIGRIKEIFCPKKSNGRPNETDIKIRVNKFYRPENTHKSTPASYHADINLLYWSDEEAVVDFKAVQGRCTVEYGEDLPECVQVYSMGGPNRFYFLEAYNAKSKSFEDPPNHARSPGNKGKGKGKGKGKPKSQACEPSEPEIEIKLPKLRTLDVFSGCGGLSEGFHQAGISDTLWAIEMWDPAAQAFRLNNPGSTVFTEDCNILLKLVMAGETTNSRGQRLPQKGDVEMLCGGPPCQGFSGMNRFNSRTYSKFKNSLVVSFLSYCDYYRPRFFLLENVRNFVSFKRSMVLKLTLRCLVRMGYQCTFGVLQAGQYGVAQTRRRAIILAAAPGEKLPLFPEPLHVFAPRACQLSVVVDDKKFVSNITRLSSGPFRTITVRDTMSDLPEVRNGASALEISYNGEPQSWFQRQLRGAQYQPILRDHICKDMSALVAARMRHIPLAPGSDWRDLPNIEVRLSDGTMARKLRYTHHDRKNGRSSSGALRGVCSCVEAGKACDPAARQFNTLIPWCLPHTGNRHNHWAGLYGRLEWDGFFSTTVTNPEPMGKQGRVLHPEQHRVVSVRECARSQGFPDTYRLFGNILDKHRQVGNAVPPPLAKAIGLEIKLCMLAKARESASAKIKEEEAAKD

Row | Compound | IC50 [1] | GI50 [2] | IC50 [3] | remaining at 20 min, 1 µM [4] | LC50 (THLE-2) | GI50 (OCI-Ly10) | GI50 (OCI-Ly3) | Papp at 18 h, 50 µM [6] | GI50 (MV4-11 [8]) | half-life at 1 µM [9] | further results
1 | COc1cc2c(NC3CCN(C(C)C)CC3)cc(-c3ccc(C)o3)nc2cc1OCCCN1CCCC1 | 231 nM | 247 nM | 3 nM | 36.9% | 1340 nM | 792 nM | 898 nM | 2.58 ×10⁻⁶ cm/s | 649 nM | 18 min | inhibition at 10 min, 10 µM (CYP2C19): 0%; inhibition at 10 min, 10 µM (CYP2D6): 11.4%; t1/2 ([5]; microsomes, 20 min, 1 µM): 102 min; inhibition at 10 min, 10 µM (CYP3A4): 0%; Stability ([7]; microsomes, 20 min, 1 µM): 64%; inhibition at 10 min, 10 µM (CYP1A2): 4.3%; inhibition at 10 min, 10 µM (CYP2C9): 6.1%
2 | COc1cc2c(NC3CCN(C)CC3)cc(-c3ccc(C)o3)nc2cc1OCCCN1CCCC1 |  |  |  | 70.9% | 1780 nM |  |  |  | 269 nM | 36 min | half-life at 1 µM ([5]; liver microsomes): > 144 min; GI50 [10]: 664 nM; inhibition in vivo at […] (MV4-11 [11]): 70%; remaining at 20 min, 1 µM ([7]; liver microsomes, read-out: Stability): 99.7%; AUC(0-t) at 24 h [12]: 1.49 µM·h
3 | COc1cc2c(NC3CCN(C)CC3)cc(-c3ccoc3)nc2cc1OCCCN1CCCC1 | 978 nM | 4560 nM | 7 nM |  | 22300 nM | 386 nM | > 4000 nM | 0.22 ×10⁻⁶ cm/s |  |  | inhibition of growth at 10 µM [13]: 54%
